Test results: ChEMBL document CHEMBL1201862, “PubChem BioAssay data set” (2004)
Activity calls are given as the source filed them.

What was measured:
Galanin receptor type 3 = Galanin receptor type 3 (Homo sapiens, UniProt O60755); experiment: Fluorescence-based cell-based primary high throughput dose response assay to identify antagonists of the Galanin Receptor 3 (GalR3).; type: functional
[1] = cytotoxicity in HEK-293T cells, dose response, cytotoxicity control for TCR NF-kB inhibitor project, luminescence, T-cell screen hits (AID 489026); type: functional, cell-based;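 note: cells exposed to compound about 14 hours before the viability readout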
cells = type: functional, cell-based; conditions: HEK-CNG
H9c2 = experiment: cells; type: functional, cell-based; conditions: Rattus norvegicus, H9c2, Myocardium;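 note: confirmatory concentration-response retest of ultra-high-throughput screening hits for modulation of myocardial damage; cell death induced by hydrogen peroxide oxidative stress; compound pretreatment for 60 min then peroxide exposure for 2 h; potency is for protecting the cells against peroxide damage rather than for killing them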
[2] = molecular target: DNA repair protein RAD52 homolog (Homo sapiens, UniProt P43351); type: functional, biochemical
[3] = HEK293T cytotoxicity, dose response, cytotoxicity control for miR-122 modulator project, cell-based, inhibitor set, cherry-pick, set 2 (AID 720697); type: functional
[4] = Luminescence-based dose response cell-based high throughput screening assay for cytotoxic compounds using the IEC-6 intestinal epithelial cell line. [Related pubchem assays: 1858 (Summary AID.), 1825 (Counterscreen.), 1907 (Confirmation screen.)]; type: functional
[5] = Luminescence Cell-Based Dose Retest to Confirm Inhibitors of Cancer Stem Cells. [Related pubchem assays (depositor defined):AID2717, AID2721]; type: functional; conditions: Homo sapiens
[6] = miR-122 activators in hepatoma reporter cells, dose response, cell-based, Huh7 psiCHECK-miR122, Renilla luciferase, cherry-picked (AID 651956); type: functional;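 note: huh7 hepatoma cells stably carrying a psiCHECK-2 miR-122 sensor plasmid; renilla luciferase signal reporting endogenous miR-122 activity after 48 h compound exposure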
INS1 = experiment: beta cell apoptosis inhibitors, cytokine rescue, dose response, luminescence, retest (AID 449756); type: functional, cell-based; conditions: Rattus norvegicus;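 note: cell death triggered by IL-1 beta plus TNF-alpha plus IFN-gamma mixture; protective hits raise ATP signal compared with cytokine alone wells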
[7] = molecular target: Broad substrate specificity ATP-binding cassette transporter ABCG2 (Homo sapiens, UniProt Q9UNQ0); experiment: ABCG2 efflux pump inhibitors, dose response, Ig-MXP3 cells, flow cytometry (AID 1690); type: functional
[8] = molecular target: Matrix metalloproteinase-14 (Homo sapiens, UniProt P50281); experiment: Dose Response confirmation of uHTS hits for a small molecule inhibitors of MT1-MMP activation in a fluorescence assay set 1.; type: functional
[9] = Counterscreen for […] of the human trace amine associated receptor 1 (TAAR1): Fluorescence-based cell-based high throughput dose response assay to identify nonselective Ga16 agonists.; type: functional
[10] = molecular target: T1, Trace amine-associated receptor 1 (Homo sapiens, UniProt Q96RJ0); experiment: Fluorescence-based cell-based high throughput dose response assay to identify antagonists of the human trace amine associated receptor 1 (TAAR1).; type: functional
T1 sequence (Q96RJ0 whole entry): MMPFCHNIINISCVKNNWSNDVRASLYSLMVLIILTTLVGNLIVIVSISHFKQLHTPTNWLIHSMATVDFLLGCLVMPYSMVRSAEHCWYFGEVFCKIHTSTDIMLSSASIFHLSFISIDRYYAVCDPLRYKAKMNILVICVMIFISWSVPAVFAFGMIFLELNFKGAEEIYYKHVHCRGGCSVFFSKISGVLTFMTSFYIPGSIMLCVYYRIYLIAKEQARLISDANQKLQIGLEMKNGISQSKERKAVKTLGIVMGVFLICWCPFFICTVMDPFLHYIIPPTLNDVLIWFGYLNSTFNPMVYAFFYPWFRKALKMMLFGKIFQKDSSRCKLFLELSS

[11] = Counterscreen for antagonists of the human trace amine associated receptor 1 (hTAAR1): Fluorescence-based cell-based high throughput dose response assay to identify nonselective Ga16 antagonists.; type: functional
[12] = molecular target: T1, Trace amine-associated receptor 1; experiment: Counterscreen for antagonists of the human trace amine associated receptor 1 (hTAAR1): Fluorescence-based cell-based high throughput dose response assay to identify TAAR1 Agonists.; type: functional
[13] = molecular target: Tyrosine-protein phosphatase non-receptor type 5 (Homo sapiens, UniProt P54829); experiment: STEP phosphatase inhibitors, confirmation, biochemical, fluorescence intensity, uHTS hits (AID 602372); type: functional; conditions: read-out: IC50_Mean
[14] = molecular target: T2, Carboxy-terminal domain RNA polymerase II polypeptide A small phosphatase 1 (Homo sapiens, UniProt Q9GZU7); experiment: inhibitors of CTDSP1, concentration-response testing, biochemical assay, absorbance-based, actives from ultra-high-throughput screening (AID 540297); type: functional
T2 sequence (Q9GZU7 whole entry): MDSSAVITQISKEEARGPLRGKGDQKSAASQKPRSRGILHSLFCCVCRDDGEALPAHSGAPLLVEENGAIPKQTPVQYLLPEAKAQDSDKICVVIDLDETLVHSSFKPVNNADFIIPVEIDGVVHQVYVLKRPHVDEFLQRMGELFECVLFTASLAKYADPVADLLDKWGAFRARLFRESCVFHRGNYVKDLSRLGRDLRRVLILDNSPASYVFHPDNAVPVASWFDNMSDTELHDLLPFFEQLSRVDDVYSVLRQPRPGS

[15] = molecular target: T3, Tyrosine-protein phosphatase non-receptor type 22 (Homo sapiens, UniProt Q9Y2R2); experiment: PTPN22 phosphatase inhibition, dose response, selectivity assay for STEP inhibitor project, biochemical (AID 624241); type: functional
T3 sequence (Q9Y2R2 whole entry): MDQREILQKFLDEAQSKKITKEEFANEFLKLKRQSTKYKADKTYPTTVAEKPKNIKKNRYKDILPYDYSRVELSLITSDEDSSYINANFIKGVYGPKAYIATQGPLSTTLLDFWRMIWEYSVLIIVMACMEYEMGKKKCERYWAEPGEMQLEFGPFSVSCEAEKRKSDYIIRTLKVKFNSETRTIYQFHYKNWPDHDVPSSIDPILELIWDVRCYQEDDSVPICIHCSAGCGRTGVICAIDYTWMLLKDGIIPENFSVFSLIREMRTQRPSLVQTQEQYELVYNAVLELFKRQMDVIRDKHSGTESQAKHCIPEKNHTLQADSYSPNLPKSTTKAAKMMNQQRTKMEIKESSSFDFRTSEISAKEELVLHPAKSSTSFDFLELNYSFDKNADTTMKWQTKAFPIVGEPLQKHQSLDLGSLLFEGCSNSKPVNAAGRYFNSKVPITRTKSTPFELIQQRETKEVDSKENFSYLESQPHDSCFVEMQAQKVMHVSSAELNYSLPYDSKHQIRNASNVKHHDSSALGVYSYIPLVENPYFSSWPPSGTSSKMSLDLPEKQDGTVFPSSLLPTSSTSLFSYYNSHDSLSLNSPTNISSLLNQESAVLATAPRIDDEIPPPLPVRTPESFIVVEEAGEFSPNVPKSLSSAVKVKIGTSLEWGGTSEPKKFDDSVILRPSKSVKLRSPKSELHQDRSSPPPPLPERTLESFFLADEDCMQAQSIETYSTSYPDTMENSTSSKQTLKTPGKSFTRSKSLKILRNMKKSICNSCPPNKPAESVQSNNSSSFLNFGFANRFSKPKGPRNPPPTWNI

[16] = molecular target: Tyrosine-protein phosphatase non-receptor type 11 (Homo sapiens, UniProt Q06124); experiment: SHP2 phosphatase inhibition, dose response, selectivity assay for STEP inhibitor project, biochemical (AID 602367); type: functional; conditions: read-out: IC50_Mean
[17] = molecular target: Dual specificity protein phosphatase 3 (Homo sapiens, UniProt P51452); experiment: VHR phosphatase inhibition, dose response, selectivity assay for STEP inhibitor project, biochemical (AID 602374); type: functional; conditions: read-out: IC50_Mean
Dual specificity protein phosphatase 3, sequence (P51452 whole entry): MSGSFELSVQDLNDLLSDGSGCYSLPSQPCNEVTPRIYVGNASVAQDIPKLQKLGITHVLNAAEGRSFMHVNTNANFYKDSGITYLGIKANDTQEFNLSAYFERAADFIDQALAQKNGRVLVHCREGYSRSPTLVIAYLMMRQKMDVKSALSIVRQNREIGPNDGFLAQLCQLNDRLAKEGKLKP

Tyrosine-protein phosphatase non-receptor type 5, sequence (P54829 whole entry, the tested form may be a part): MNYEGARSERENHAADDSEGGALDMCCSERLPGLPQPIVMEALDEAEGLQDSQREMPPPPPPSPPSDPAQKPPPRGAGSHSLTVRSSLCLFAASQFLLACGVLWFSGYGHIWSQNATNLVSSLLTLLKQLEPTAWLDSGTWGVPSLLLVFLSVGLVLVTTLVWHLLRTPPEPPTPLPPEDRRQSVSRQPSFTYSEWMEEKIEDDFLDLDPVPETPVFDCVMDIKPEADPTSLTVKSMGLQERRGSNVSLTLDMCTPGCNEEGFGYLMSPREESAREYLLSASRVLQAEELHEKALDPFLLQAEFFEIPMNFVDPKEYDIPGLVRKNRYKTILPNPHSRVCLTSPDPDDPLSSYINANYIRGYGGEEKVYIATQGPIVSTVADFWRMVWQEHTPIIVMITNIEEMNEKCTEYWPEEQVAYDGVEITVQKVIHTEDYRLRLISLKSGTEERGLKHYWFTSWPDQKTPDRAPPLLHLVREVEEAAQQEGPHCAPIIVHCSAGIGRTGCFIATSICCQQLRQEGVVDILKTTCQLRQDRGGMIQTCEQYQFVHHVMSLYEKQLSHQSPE
Galanin receptor type 3, sequence (O60755 whole entry): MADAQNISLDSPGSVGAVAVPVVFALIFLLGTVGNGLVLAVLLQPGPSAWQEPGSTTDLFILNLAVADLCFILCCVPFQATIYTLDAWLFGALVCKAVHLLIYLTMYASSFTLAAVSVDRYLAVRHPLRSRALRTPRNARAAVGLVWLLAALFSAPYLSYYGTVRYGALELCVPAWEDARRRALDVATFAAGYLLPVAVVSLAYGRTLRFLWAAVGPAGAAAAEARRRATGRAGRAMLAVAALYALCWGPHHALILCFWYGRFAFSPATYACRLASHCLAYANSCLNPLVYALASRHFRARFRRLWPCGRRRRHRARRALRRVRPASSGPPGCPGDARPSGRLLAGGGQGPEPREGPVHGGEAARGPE
Broad substrate specificity ATP-binding cassette transporter ABCG2, sequence (Q9UNQ0 whole entry): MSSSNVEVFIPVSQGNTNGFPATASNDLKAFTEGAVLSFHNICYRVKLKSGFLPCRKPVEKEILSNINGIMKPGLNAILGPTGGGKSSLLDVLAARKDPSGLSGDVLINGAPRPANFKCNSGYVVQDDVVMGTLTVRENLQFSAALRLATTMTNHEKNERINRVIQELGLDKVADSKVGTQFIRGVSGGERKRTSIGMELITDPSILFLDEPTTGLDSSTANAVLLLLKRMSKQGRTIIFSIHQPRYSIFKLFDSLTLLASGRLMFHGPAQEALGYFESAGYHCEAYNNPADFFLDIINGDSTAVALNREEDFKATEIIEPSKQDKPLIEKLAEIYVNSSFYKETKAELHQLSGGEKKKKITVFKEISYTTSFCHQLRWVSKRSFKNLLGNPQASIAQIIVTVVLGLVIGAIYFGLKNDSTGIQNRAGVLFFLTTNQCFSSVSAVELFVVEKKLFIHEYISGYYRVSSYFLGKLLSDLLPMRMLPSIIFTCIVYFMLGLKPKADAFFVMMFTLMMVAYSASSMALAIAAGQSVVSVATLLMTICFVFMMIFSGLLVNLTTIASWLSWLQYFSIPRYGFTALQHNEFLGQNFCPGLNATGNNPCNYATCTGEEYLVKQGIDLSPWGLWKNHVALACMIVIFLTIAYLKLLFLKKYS
DNA repair protein RAD52 homolog, sequence (P43351 whole entry): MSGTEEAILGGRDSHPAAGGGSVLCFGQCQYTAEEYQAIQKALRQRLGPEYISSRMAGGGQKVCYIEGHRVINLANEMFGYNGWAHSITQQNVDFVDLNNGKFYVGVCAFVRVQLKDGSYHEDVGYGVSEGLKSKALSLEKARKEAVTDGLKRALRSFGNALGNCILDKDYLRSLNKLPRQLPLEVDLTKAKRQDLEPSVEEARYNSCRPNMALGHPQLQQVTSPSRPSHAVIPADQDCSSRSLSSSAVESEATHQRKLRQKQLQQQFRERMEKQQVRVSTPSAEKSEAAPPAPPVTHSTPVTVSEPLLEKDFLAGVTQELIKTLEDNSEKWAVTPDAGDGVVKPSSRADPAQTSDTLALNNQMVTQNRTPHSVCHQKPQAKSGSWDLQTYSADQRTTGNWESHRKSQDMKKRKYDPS
Tyrosine-protein phosphatase non-receptor type 11, sequence (Q06124 whole entry): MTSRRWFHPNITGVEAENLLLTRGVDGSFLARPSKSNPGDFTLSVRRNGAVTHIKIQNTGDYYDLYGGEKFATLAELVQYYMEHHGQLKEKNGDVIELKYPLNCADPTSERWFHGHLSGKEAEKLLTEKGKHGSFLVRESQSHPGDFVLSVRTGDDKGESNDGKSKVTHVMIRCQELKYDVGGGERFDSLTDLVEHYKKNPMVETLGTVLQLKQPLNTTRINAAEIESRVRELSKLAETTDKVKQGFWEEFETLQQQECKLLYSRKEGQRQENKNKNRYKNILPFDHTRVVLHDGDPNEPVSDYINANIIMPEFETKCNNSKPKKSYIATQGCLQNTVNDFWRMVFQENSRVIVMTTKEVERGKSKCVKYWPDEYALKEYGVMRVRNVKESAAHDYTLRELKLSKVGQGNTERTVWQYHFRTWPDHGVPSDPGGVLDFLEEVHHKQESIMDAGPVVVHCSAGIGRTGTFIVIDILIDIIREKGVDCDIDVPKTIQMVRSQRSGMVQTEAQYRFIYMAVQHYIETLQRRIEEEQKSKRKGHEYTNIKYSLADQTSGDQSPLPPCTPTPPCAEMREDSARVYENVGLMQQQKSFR

CCn1cc(C(=O)NC2CCCc3c2cnn3-c2cccc(C)c2C)cn1 (stereo unspecified)
IC50 (Galanin receptor type 3): 0.874 µM (active)
IC50 [1]: > 80 µM (inactive)
EC50 (cells): > 29.9 µM (inactive)

COc1ccc2c(c1OC)c(=O)n1c3ccc(OC(C)C(=O)NCCN4CCOCC4)cc3c3ccnc2c31 (stereo unspecified)
IC50 (H9c2): 21.3 µM (active)
AC50 [2]: 4.31 µM (active)

Cc1ccc(-c2nc(C(Cl)Cl)c3ccccc3n2)cc1
AC50 [3]: 10.1 µM (active)
IC50 [4]: 0.373 µM (active)
AC50 [5]: 1.1 µM (active)
AC50 [6]: 20 µM (active)
AC50 (INS1): 4.53 µM (active)

CCOc1ccccc1NC(=O)C(OC(=O)c1ccc(N(C)C)cc1)c1ccccc1 (stereo unspecified)
EC50 [7]: 2.75 µM (active)

CCOc1ccc2nc(NN=C3C(=O)NC(=S)NC3=O)sc2c1
IC50 [8]: 13.9 µM (active)

Cc1ccc(S(=O)(=O)N2[C@@H](c3ccc(Br)cc3)C(C(=O)O)=CC[C@H]2c2ccc(Cl)cc2)cc1
EC50 [9]: > 29.9 µM (inactive)
IC50 [10]: 1.62 µM (active)
IC50 [11]: 17.5 µM (inactive)
EC50 [12]: 13.1 µM (inactive)

O=C(O)Cc1cccc(O)c(=O)c1C(=O)O
IC50 [13]: 11.6 µM (active)
IC50 [14]: 3.9 µM (active)
IC50 [15]: 8.34 µM (active)
IC50 [16]: 0.376 µM (active)
IC50 [17]: 0.544 µM (active)
